According to patent publication US10383848B2, “Indole-based therapeutics” (Creighton University, priority 2016, dated 2019):
≈ marks a conversion by molar mass, not a printed value. Read-outs that look alike come from different tables or passages of the source.

Columns and labels:
[1] = In vivo acute toxicity assay (Maximum Tolerated Dose); parameters: species or system Balb/C mice; conditions: 100, 200 and 300 mg/kg for 3 consecutive days of dosing, gavage, mice
Description: 6-8 week old Balb/C female mice were ordered from Charles River. Mice were rested one to two weeks before dosing. For each dose of compound, 3 mice were utilized. […] Compound was given twice per day for 3 consecutive days by gavage, at 100 μl/mouse. Compounds were prepared the day before or the day of dosing and stored at 4° C. until dosing. The time of dosing was recorded for each mouse. Observations were recorded immediately, at 10 min, 1 hour, 2 hours, 4 hours, and 24 hours after dosing. […] Mice were dosed for three days and on the fourth day mice were observed twice daily for two days, then once daily for five days.
As an initial in vivo study, the safety of compounds and preliminary pharmacokinetics was assessed in an acute toxicity mouse model (Maximum Tolerated Dose assay, MTD) to evaluate any potential adverse effects and determine a safe dose for mouse efficacy studies. Compounds were tested to ensure safe use in healthy mice prior to any further in vivo testing. […] Novel compounds were generally administered to mice at 40, 75 and 100 mg/kg in a tested formulation, administered on three consecutive days, 3 mice per dose group, in the chosen formulation. […] Mice were observed 10 min, 1, 2, 4 hours after dosing and then daily afterwards. During the observations, humane handling practices and animal welfare regulations were strictly followed. […]

M. smegmatis mc^2155 = test: MIC, resazurin microtiter assay; type: cell-based; conditions: Mycolicibacterium smegmatis, MC^2155, read-out: MIC M. smeg. mc^2155
M. abscessus ATCC 19977 = test: MIC, resazurin microtiter assay; type: cell-based; conditions: Mycobacteroides abscessus, ATCC19977, read-out: MIC M. abscessus ATCC 19977
[2] = test system: M. massiliense strain 1513; test: Metabolic labeling and mycolic acid analysis; conditions: 4x and 10x MIC, 16 hr, [1,2-14C]acetate labeling, TLC
Description: Cultures of M. massiliense 1513 grown to mid log-phase in Mueller-Hinton II broth were incubated with different concentrations of inhibitors for 16 hr at 37° C. with shaking. 0.5 μCi/mL [1,2-^14C]acetic acid (specific activity, 52 Ci/mol, PerkinElmer Inc.) was added at the same time as the inhibitors. Total lipids and cell wall-bound mycolic acid methyl esters were prepared from treated and untreated cells and analyzed by TLC as described in Grzegorzewicz et al, Nature Chemical Biology, 2012, 8:334+341.

M. chelonae ATCC 35752 = test: MIC, resazurin microtiter assay; type: cell-based; conditions: Mycobacteroides chelonae, ATCC35752, read-out: MIC M. chelonae ATCC 35752
M. abscessus 103 [3] = test: MIC/MBC by microbroth dilution (MH or 7H9 broth); type: cell-based, M. abscessus subsp. bolletii
M. intracellulare 1956 = test: MIC, resazurin microtiter assay; type: cell-based; conditions: read-out: MIC M. avium Intracellulare 1956
M. avium 104 = test: MIC, resazurin microtiter assay; type: cell-based; conditions: Mycobacterium avium, 104, read-out: MIC M. avium 104
P. aeruginosa PAO-1 = test: MIC, resazurin microtiter assay; type: cell-based, Pseudomonas aeruginosa
[4] = test system: M. tuberculosis H37Rv mc^26206; test: microbe, parasite or virus in culture; type: cell-based
M. abscessus DCI #21 = test: MIC, resazurin microtiter assay; type: cell-based
M. abscessus 1513 = test: MIC/MBC by microbroth dilution (MH or 7H9 broth); type: cell-based, M. abscessus subsp. abscessus
S. aureus ATCC25923 = test: MIC, resazurin microtiter assay; type: cell-based; conditions: Staphylococcus aureus, ATCC25923, read-out: MIC S. aureus ATCC25923
M. abscessus 103 [5] = test: Acute SCID mouse infection efficacy model
M. massiliense CRM 0019 = test: MIC, resazurin microtiter assay; type: cell-based
M. bolletii ATCC 14472 = test: MIC, resazurin microtiter assay; type: cell-based
THP-1 cells = test: Cytotoxicity assay, THP-1 cell viability (CellTiter-Glo); type: cell-based, human; conditions: 3 days
Description: The cytotoxicity of compounds was determined by measuring THP-1 cell viability after 3 days in the presence of test compounds. Compounds were prepared as 10-point serial dilutions in DMSO. The highest concentration of compound tested was 50 μM where compounds were soluble in DMSO at 10 mM. THP-1 cells were cultured in complete RPMI and differentiated into macrophage-like cells using 80 nM PMA overnight at 37° C., 5% CO2. Cells were inoculated into assay plates and cultured for 24 h before compound dilutions were added to a final DMSO concentration of 0.5%. Each run included staurosporine as a control. Assay plates were incubated for 3 days at 37° C., 5% CO2, growth was measured using the CellTiter-Glo® Luminescent Cell Viability Assay (Promega) which uses ATP as an indicator of cell viability. Relative luminescent units (RLU) were measured using a Biotek Synergy 4 plate reader. The dose response curve was fitted using the Levenberg-Marquardt algorithm.

[6] = test system: M. massiliense CIP 108297; test: MIC, resazurin microtiter assay; type: cell-based; conditions: Mycobacteroides abscessus, CIP108297, read-out: MIC M. massiliense CIP 108297
M. xenopi WT = test: MIC, resazurin microtiter assay; type: cell-based; conditions: Mycobacterium xenopi, read-out: MIC M. xenopi WT
[7] = SCID mice i.v. infected with M. abscessus 103, compounds 300 mg/kg PO in 20% cyclodextrin, AMI 150 mg/kg SQ, once daily 8 days
[8] = infected SCID mice, daily 300 mg/kg in 20% cyclodextrin

O=C(NC12CC3CC(CC(C3)C1)C2)c1cc2ccccc2[nH]1 [Compound 5, N-(1-adamantyl)-1H-indole-2-carboxamide]
Tolerability (acute toxicity, MTD) [1]: well tolerated | MIC (M. smegmatis mc^2155): 1.56 µg/mL (≈ 5.3 µM) | MIC (M. abscessus ATCC 19977): 0.25 µg/mL (≈ 0.849 µM) | TMM build-up and mycolic acid transfer onto arabinogalactan and TDM [2]: concentration-dependent build-up of TMM | MIC (M. chelonae ATCC 35752): 0.25 µg/mL (≈ 0.849 µM) | MIC (M. abscessus 103 [3]; Mycobacteroides abscessus, 103, read-out: MIC M. abscessus 103, 7H9 Broth): > 64 µg/mL | MIC (M. abscessus 103 [3]; Mycobacteroides abscessus, 103, read-out: MIC M. abscessus 103, MH Broth): 16 µg/mL (≈ 54.3 µM) | MIC (M. intracellulare 1956): 8 µg/mL (≈ 27.2 µM) | MIC (M. avium 104): 8 µg/mL (≈ 27.2 µM) | MIC P. aeruginosa PAO-1 (P. aeruginosa PAO-1; Mueller Hinton II): inactive | MIC (P. aeruginosa PAO-1; Pseudomonas aeruginosa, PAO1, read-out: MIC P. aeruginosa PAO-1): > 160 µg/mL | MIC ([4]; Mycobacterium tuberculosis, H37RV, read-out: MIC M. tb H37 Rv (mc2-6206)): 0.2 µg/mL (≈ 0.679 µM) | Selectivity Index (TD50/MIC) M. tb H37Rv ([4]; TD50 in THP-1 cells): >73 | MIC (M. abscessus DCI #21; Mycobacteroides abscessus, read-out: MIC M. abscessus DCI #21): 0.25 µg/mL (≈ 0.849 µM) | Selectivity Index (TD50/MIC) M. abscessus DCI #21 (M. abscessus DCI #21; TD50 in THP-1 cells): >58 | MIC (M. abscessus 1513; Mycobacteroides abscessus, 1513, read-out: MIC M. abscessus 1513, 7H9 Broth): > 64 µg/mL | MIC (M. abscessus 1513; Mycobacteroides abscessus, 1513, read-out: MIC M. abscessus 1513, MH Broth): 32 µg/mL (≈ 109 µM) | MIC (S. aureus ATCC25923): > 160 µg/mL | log10 CFU liver counts on day 12 (M. abscessus 103 [5]; [7]): 5.30±0.23 log10 CFU | log10 CFU spleen counts on day 12 (M. abscessus 103 [5]; [7]): 3.79±0.40 log10 CFU | Survival until the Day 12 endpoint (M. abscessus 103 [5]; [8]): all animals survived | Weight loss (M. abscessus 103 [5]; [8]): didn't demonstrate any significant weight loss | MIC (M. massiliense CRM 0019; Mycobacteroides abscessus, CRM0019, read-out: MIC M. massiliense CRM 0019): 0.25 µg/mL (≈ 0.849 µM) | Selectivity Index (TD50/MIC) M. Massiliense CRM0019 (M. massiliense CRM 0019; TD50 in THP-1 cells): >58 | MIC (M. bolletii ATCC 14472; Mycobacteroides abscessus, ATCC14472, read-out: MIC M. bolletii ATCC 14472): 0.25 µg/mL (≈ 0.849 µM) | Selectivity Index (TD50/MIC) M. bolletii (M. bolletii ATCC 14472; TD50 in THP-1 cells): >58 | TD50 (THP-1 cells): >14.7 µg/mL | MIC [6]: 0.5 µg/mL (≈ 1.7 µM) | MIC (M. xenopi WT): 0.5 to 1 µg/mL (≈ 1.7 to 3.4 µM)
